Measured values published in patent publication US8987502B2, “Oleanolic acid amidate derivatives, preparation methods and uses thereof” (Hangzhou Bensheng Pharmaceutical Co., Ltd., priority 2011, dated 2015).
In brackets after ≈: the same amount, converted by molar mass.

Tests used:
RPMI8226 = assay: MTT multiple myeloma cell proliferation inhibition, RPMI8226; format: cell-based; conditions: Homo sapiens, RPMI-8226
Experimental: Multiple myeloma cell lines: RPMI8226 (multiple myeloma), purchased from Fuxiang Bio-tech Co. Ltd., Shanghai, China.
(§1) Obtaining 6000 well-growing leukemia cells and inoculating them into wells of a 96-well cell culture plate. The culture medium is the 1640 cell culture medium containing 10% fetal bovine serum. After adding the amidated oleanolic acid derivatives of different concentrations and mixing uniformly, placing the plate in a carbon dioxide cell incubator (5% CO2) at 37° C. and incubated for 72 hours. Then the relative number of viable cells is determined by the MTT method. In this experiment, the cell proliferation inhibition rate in control group (not treated with any compound) is set as 0%.

CaES-17 = assay: MTT solid tumor cell proliferation inhibition, CaES-17; format: cell-based, human
Experimental: (§2) Human solid tumor cell lines: Hep-2 (laryngeal carcinoma), A549 (human lung cancer), CaES-17 (esophageal cancer cell), PC-3 (prostate cancer), CNE (nasopharyngeal carcinoma cell), and SK-OV-3 (ovarian cancer cell), all of which are purchased from China Center For Type Culture Collection; RKO (human colon adenocarcinoma cell), MGC 803 (human gastric cancer cell), MG63 (osteosarcoma) and U87 MG (malignant glioma cell), all of which are purchased from Fuxiang Bio-tech Co. Ltd., Shanghai, China; PANC-1 (pancreatic cancer), Hep G2 (human liver cancer cell), Becap37 (human breast cancer cell), and Hela (human cervical cancer cell), all of which are donated by Cancer Research Institute of Zhejiang University, China.
(§3) Obtaining 4000 well-growing human solid tumor cells and inoculating them into wells of a 96-well cell culture plate. The culture medium is DMEM High Glucose cell culture medium containing 10% fetal bovine serum. The plate is placed in a carbon dioxide cell incubator (5% CO2) at 37° C. for 24 hours for incubation. After being added with the amidated oleanolic acid derivatives of different concentrations and mixed uniformly, the plate is placed in a carbon dioxide cell incubator (5% CO2) at 37° C. for 72 hours for incubation. Then the relative number of the living cells is determined by the MTT method. In this experiment, the cell proliferation inhibition rate in control group (not treated with any compound) is set as 0%.

MGC803 = assay: MTT solid tumor cell proliferation inhibition, MGC803; format: cell-based, human; conditions: Homo sapiens, MGC-803
Experimental: as §2, §3

Kasumi-1 = assay: MTT leukemia cell proliferation inhibition, Kasumi-1; format: cell-based; conditions: Homo sapiens
Description: (§4) Leukemia cell lines: leukemia cell lines: K562/adr (drug-resistant, chronic myeloid leukemia, CML), NB4 (acute promyelocytic leukemia, AML), Kasumi-1 (acute myeloid leukemia M2 type, AML-M2), Jurkat (acute lymphoblastic leukemia, ALL), all of which are donated by Cancer Research Institute of Zhejiang University, China; and H9 (acute lymphoblastic leukemia, ALL), which is purchased from China Center for Type Culture Collection (CCTCC).
(§5) Reagents: The standard sample of oleanolic acid (OA) is purchased from Hua Kang Pharmaceutical Raw Material Factory, Shifang City, Sichuan, China; and the amidated oleanolic acid derivatives are prepared according to the present invention.
as §1

U87 MG = assay: MTT solid tumor cell proliferation inhibition, U87 MG; format: cell-based, human
Experimental: as §2, §3

RKO = assay: MTT solid tumor cell proliferation inhibition, RKO; format: cell-based; conditions: Homo sapiens, 72 h
Experimental: as §2, §3

NB4 = assay: MTT leukemia cell proliferation inhibition, NB4; format: cell-based; conditions: Homo sapiens, NB-4
Description: as §4, §5, §1

CNE = assay: MTT solid tumor cell proliferation inhibition, CNE; format: cell-based, human; conditions: Homo sapiens, CNE, 72 h
Experimental: as §2, §3

Hep-2 = assay: MTT solid tumor cell proliferation inhibition, Hep-2; format: cell-based, human
Experimental: as §2, §3

PC-3 = assay: MTT solid tumor cell proliferation inhibition, PC-3; format: cell-based, human; conditions: Homo sapiens
Experimental: as §2, §3

A549 = assay: MTT solid tumor cell proliferation inhibition, A549; format: cell-based, human; conditions: for inhibition at 16 µg/mL / IC50: Homo sapiens; for inhibition at 16 µg/mL: A549, 16 μg/mL compound, 72 h, read-out: IR (inhibition rate); for IC50: A549, 72 h, MTT
Experimental: as §2, §3

MG 63 = assay: MTT solid tumor cell proliferation inhibition, MG 63; format: cell-based, human
Experimental: as §2, §3

Hep G2 = assay: MTT solid tumor cell proliferation inhibition, Hep G2; format: cell-based; conditions: Homo sapiens, HepG2
Experimental: as §2, §3

SK-OV-3 = assay: MTT solid tumor cell proliferation inhibition, SK-OV-3; format: cell-based, human; conditions: Homo sapiens
Experimental: as §2, §3

PANC-1 = assay: MTT solid tumor cell proliferation inhibition, PANC-1; format: cell-based, human; conditions: Homo sapiens
Experimental: as §2, §3

H9 = assay: MTT leukemia cell proliferation inhibition, H9; format: cell-based, human; conditions: Homo sapiens
Description: as §4, §5, §1

Hela = assay: MTT solid tumor cell proliferation inhibition, Hela; format: cell-based, human; conditions: Homo sapiens, Hela, 72 h
Experimental: as §2, §3

K562/adr = assay: MTT leukemia cell proliferation inhibition, K562/adr; format: cell-based; conditions: Homo sapiens, 72 h; for inhibition at 16 µg/mL: 16 μg/mL compound, read-out: IR (inhibition rate); for IC50: MTT
Description: as §4, §5, §1

Jurkat = assay: MTT leukemia cell proliferation inhibition, Jurkat; format: cell-based; conditions: Homo sapiens, 72 h
Description: as §4, §5, §1

Becap37 = assay: MTT solid tumor cell proliferation inhibition, Becap37; format: cell-based; conditions: Homo sapiens
Experimental: as §2, §3

[1] = 16 μg/mL compound, read-out: IR (inhibition rate)

## CC1(C)CC[C@]2(NC(=O)c3ccco3)CC[C@]3(C)C(=CC[C@@H]4[C@@]5(C)CC[C@H](O)C(C)(C)[C@@H]5CC[C@]43C)[C@@H]2C1 [BS-OA-099]
RPMI8226; RPMI8226, 16 μg/mL compound, 72 h, read-out: IR (inhibition rate)
  inhibition at 16 µg/mL: 98.9%
RPMI8226; RPMI8226, 72 h, MTT
  IC50: 5.79 µg/mL (≈ 11.1 µM)
CaES-17; CaES-17 cells
  improvement of cell inhibition rate as compared with oleanolic acid: more than 2 fold
CaES-17; Homo sapiens, CaEs17, CaES-17, 16 μg/mL compound, 72 h, read-out: IR (inhibition rate)
  inhibition at 16 µg/mL: 66.6%
CaES-17; Homo sapiens, CaEs17, CaES-17, 72 h, MTT
  IC50: 12.4 µg/mL (≈ 23.8 µM)
MGC803; MGC803, 16 μg/mL compound, 72 h, read-out: IR (inhibition rate)
  inhibition at 16 µg/mL: 50%
MGC803; MGC803, 72 h, MTT
  IC50: 16 µg/mL (≈ 30.7 µM)
Kasumi-1; Kasumi-1, 16 μg/mL compound, 72 h, read-out: IR (inhibition rate)
  inhibition at 16 µg/mL: 69.1%
Kasumi-1; Kasumi-1, 72 h, MTT
  IC50: 13.1 µg/mL (≈ 25.1 µM)
U87 MG; Homo sapiens, U-87 MG, U87 MG, 16 μg/mL compound, 72 h, read-out: IR (inhibition rate)
  inhibition at 16 µg/mL: 47.9%
U87 MG; Homo sapiens, U-87 MG, U87 MG, 72 h, MTT
  IC50: 16 µg/mL (≈ 30.7 µM)
U87 MG; U87 MG cells
  improvement of cell inhibition rate as compared with oleanolic acid: more than 2 fold
RKO; [1]
  inhibition at 16 µg/mL: 63.1%
RKO; MTT
  IC50: 14.3 µg/mL (≈ 27.4 µM)
NB4; NB4, 16 μg/mL compound, 72 h, read-out: IR (inhibition rate)
  inhibition at 16 µg/mL: 100%
NB4; NB4, 72 h, MTT
  IC50: 9.17 µg/mL (≈ 17.6 µM)
CNE; [1]
  inhibition at 16 µg/mL: 42.4%
CNE; MTT
  IC50: > 16 µg/mL
Hep-2; Hep-2 cells
  improvement of cell inhibition rate as compared with oleanolic acid: more than 3 fold
Hep-2; Homo sapiens, Hep-2, 16 μg/mL compound, 72 h, read-out: IR (inhibition rate)
  inhibition at 16 µg/mL: 37.3%
Hep-2; Homo sapiens, Hep-2, 72 h, MTT
  IC50: > 16 µg/mL
PC-3; PC-3, 16 μg/mL compound, 72 h, read-out: IR (inhibition rate)
  inhibition at 16 µg/mL: 47.2%
PC-3; PC-3, 72 h, MTT
  IC50: 19.5 µg/mL (≈ 37.4 µM)
A549; A549 cells
  improvement of cell inhibition rate as compared with oleanolic acid: more than 4 fold
A549
  inhibition at 16 µg/mL: 75%
  IC50: 15 µg/mL (≈ 28.7 µM)
MG 63; Homo sapiens, MG 63, 72 h, MTT
  IC50: 15.1 µg/mL (≈ 29 µM)
MG 63; MG 63, 16 μg/mL compound, 72 h
  IR (inhibition rate): 58.9%
Hep G2; Hep G2, 16 μg/mL compound, 72 h, read-out: IR (inhibition rate)
  inhibition at 16 µg/mL: 25.3%
Hep G2; Hep G2, 72 h, MTT
  IC50: > 16 µg/mL
SK-OV-3; SK-OV-3, 16 μg/mL compound, 72 h, read-out: IR (inhibition rate)
  inhibition at 16 µg/mL: 43.2%
SK-OV-3; SK-OV-3, 72 h, MTT
  IC50: > 16 µg/mL
PANC-1; PANC-1, 16 μg/mL compound, 72 h, read-out: IR (inhibition rate)
  inhibition at 16 µg/mL: 34.3%
PANC-1; PANC-1, 72 h, MTT
  IC50: > 16 µg/mL
H9; H9, 16 μg/mL compound, 72 h, read-out: IR (inhibition rate)
  inhibition at 16 µg/mL: 59.8%
H9; H9, 72 h, MTT
  IC50: 14 µg/mL (≈ 26.8 µM)
Hela; [1]
  inhibition at 16 µg/mL: 72.9%
Hela; MTT
  IC50: 12.6 µg/mL (≈ 24.1 µM)
K562/adr
  inhibition at 16 µg/mL: 97.1%
  IC50: 5.26 µg/mL (≈ 10.1 µM)
Jurkat; [1]
  inhibition at 16 µg/mL: 63.6%
Jurkat; MTT
  IC50: 14.5 µg/mL (≈ 27.8 µM)
Becap37; Becap37, 16 μg/mL compound, 72 h, read-out: IR (inhibition rate)
  inhibition at 16 µg/mL: 35.1%
Becap37; Becap37, 72 h, MTT
  IC50: > 16 µg/mL

## CC1(C)CC[C@]2(NC(=O)/C=C/c3ccco3)CC[C@]3(C)C(=CC[C@@H]4[C@@]5(C)CC[C@H](O)C(C)(C)[C@@H]5CC[C@]43C)[C@@H]2C1 [BS-OA-100]
A549
  inhibition at 16 µg/mL: 15.6%
  IC50: > 16 µg/mL
K562/adr
  inhibition at 16 µg/mL: 38.8%
  IC50: > 16 µg/mL

## Cc1ccc(C(=O)N[C@]23CCC(C)(C)C[C@H]2C2=CC[C@@H]4[C@@]5(C)CC[C@H](O)C(C)(C)[C@@H]5CC[C@@]4(C)[C@]2(C)CC3)cc1 [BS-OA-102]
A549
  inhibition at 16 µg/mL: 13.7%
  IC50: > 16 µg/mL
K562/adr
  inhibition at 16 µg/mL: 57%
  IC50: > 16 µg/mL
